Laboratory results taken from ChEMBL document CHEMBL1201862, “PubChem BioAssay data set” (2004).
Activity calls are given as the source filed them.

Tests used:
[1] = A cytotoxicity screen of small molecule inhibitors of the PhoP region in Salmonella typhi identified in the primary screen. [Related pubchem assays: 1850, 1864, 1985 ]; assay type: functional
[2] = target: Sphingosine 1-phosphate receptor 2 (Homo sapiens, UniProt O95136); assay: Dose Response Cell Based Assay for Agonists of the S1P2 Receptor. [Related pubchem assays: 729, 736, 843 ]; assay type: functional
Sphingosine 1-phosphate receptor 2, sequence (O95136 whole entry): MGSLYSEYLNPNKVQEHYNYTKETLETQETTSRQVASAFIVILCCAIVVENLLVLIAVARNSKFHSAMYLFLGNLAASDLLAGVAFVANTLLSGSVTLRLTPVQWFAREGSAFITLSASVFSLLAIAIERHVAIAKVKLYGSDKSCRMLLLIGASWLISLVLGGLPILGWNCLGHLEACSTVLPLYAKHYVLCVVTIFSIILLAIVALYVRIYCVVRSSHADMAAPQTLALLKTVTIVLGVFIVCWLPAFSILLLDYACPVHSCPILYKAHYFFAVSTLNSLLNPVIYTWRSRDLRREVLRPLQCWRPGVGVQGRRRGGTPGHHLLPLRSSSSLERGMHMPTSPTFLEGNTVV

[3] = target: Glutathione-S-transferase (Schistosoma japonicum, UniProt Q26513); assay: biotin-GST/anti-GST TR-FRET signal inhibitors, dose response, artefact control for Vif-APOBEC3G degradation inhibitor project, biochemical (AID 1117362); assay type: functional
Glutathione-S-transferase, sequence (Q26513 whole entry): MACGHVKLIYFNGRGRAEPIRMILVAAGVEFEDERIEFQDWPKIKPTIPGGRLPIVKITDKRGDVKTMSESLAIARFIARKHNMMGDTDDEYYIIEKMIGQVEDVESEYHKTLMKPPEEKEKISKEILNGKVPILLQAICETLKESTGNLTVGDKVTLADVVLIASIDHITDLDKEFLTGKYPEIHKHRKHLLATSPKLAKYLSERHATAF

Transthyretin = Transthyretin (Homo sapiens, UniProt P02766); assay: Luminescence-based cell-based high throughput dose response assay to identify activators of Transthyretin (TTR) transcription.; assay type: functional
[4] = target: E3 ubiquitin-protein ligase Mdm2 (Homo sapiens, UniProt Q00987); assay: enhancers of MDM2-luciferase reporter signal, concentration-effect titration, project on inhibitors of MDM2 ubiquitin ligase, cellular assay, luminescent readout, 384-well plate format (AID 1394); assay type: functional;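 further: MDM2 E3 inhibitors raise luminescence so EC50 is for signal enhancement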
E3 ubiquitin-protein ligase Mdm2, sequence (Q00987 whole entry): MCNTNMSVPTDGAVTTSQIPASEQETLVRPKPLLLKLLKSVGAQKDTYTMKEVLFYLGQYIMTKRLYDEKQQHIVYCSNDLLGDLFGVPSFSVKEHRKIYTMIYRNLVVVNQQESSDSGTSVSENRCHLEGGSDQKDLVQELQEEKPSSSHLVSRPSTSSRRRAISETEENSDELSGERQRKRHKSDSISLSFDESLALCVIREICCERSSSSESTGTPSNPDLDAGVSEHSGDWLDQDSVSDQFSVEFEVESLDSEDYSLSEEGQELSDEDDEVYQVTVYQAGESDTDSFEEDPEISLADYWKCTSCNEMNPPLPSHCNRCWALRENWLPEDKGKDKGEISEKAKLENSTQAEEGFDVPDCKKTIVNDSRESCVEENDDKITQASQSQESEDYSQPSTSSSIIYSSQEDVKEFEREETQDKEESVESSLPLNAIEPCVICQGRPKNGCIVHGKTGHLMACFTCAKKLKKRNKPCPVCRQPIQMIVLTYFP

[5] = Luminescence Cell-Based Dose Response HTS to Identify Inhibitors of 5'UTR Stem-Loop Driven Prion Protein mRNA Translation in H4 Neuroglioblastoma Cells. [Related pubchem assays: 1827 (Project Summary), 1813 (Primary HTS)]; assay type: functional
[6] = inhibitors of SNCA 5'UTR-driven reporter translation, confirmation, H4 neuroglioma cells, luminescence (AID 1988); assay type: functional, cell-based
[7] = target: T1, Heat shock factor protein 1 (Mus musculus, UniProt P38532); assay: HSF1 potentiators in luciferase reporter cells, confirmation, cell-based, NIH3T3, luminescence, dose retest (AID 435004); assay type: functional;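 further: stress induced by proteasome inhibitor MG132 added 30 min after compound; luciferase reporter driven by HSF1 response element in NIH3T3 cells; actives raise luminescence as potentiators of the MG132 stress response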
T1 sequence (P38532 whole entry): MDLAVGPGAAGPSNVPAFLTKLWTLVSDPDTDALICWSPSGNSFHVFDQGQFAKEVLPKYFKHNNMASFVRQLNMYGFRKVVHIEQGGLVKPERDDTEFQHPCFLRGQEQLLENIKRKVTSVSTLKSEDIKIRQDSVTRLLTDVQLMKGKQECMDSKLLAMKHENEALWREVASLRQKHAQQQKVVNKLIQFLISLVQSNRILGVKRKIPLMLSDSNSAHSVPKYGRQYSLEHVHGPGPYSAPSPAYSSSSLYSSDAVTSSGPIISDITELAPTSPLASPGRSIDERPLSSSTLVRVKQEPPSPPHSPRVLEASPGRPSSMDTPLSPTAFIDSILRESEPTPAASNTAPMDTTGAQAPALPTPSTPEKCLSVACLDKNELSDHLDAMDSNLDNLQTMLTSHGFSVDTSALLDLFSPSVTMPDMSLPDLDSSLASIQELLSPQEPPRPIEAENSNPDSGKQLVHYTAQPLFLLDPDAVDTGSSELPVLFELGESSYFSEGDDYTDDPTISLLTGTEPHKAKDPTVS

[8] = target: DNA repair and recombination protein RAD54-like (Homo sapiens, UniProt Q92698); assay: inhibitors of human RAD54 branch migration, confirmation, biochemical, fluorescence, cherry-picked samples, dose series (AID 651657); assay type: functional
DNA repair and recombination protein RAD54-like, sequence (Q92698 whole entry): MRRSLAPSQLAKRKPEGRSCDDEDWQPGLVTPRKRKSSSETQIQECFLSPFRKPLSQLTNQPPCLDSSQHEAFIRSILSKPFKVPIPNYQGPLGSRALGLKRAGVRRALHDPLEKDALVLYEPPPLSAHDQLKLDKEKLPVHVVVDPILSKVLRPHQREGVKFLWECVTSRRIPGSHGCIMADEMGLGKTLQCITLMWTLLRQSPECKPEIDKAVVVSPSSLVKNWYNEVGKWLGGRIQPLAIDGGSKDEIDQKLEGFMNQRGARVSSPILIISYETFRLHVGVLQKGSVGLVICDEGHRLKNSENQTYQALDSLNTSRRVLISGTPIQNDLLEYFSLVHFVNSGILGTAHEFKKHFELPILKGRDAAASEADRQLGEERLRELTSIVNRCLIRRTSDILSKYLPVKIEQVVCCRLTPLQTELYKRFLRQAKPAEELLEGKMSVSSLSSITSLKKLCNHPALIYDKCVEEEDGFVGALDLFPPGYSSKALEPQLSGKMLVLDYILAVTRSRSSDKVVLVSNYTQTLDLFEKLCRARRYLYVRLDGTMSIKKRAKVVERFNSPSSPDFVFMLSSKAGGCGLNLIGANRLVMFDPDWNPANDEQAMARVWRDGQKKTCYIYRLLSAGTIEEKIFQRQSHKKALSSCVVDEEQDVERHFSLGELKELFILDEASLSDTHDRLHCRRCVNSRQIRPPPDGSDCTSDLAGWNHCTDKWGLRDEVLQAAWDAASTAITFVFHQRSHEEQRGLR

[9] = target: SWI/SNF-related matrix-associated actin-dependent regulator of chromatin subfamily A member 2 (Homo sapiens, UniProt P51531); assay: Luminescence-based cell-based high throughput dose response assay to identify activators of the function of SWI/SNF related, matrix associated, actin dependent regulator of chromatin, subfamily a, member 2 (SMARCA2, BRM).; assay type: functional
[10] = Counterscreen for activators of the function of SWI/SNF related, matrix associated, actin dependent regulator of chromatin, subfamily a, member 2 (SMARCA2, BRM): Luminescence-based cell-based high throughput dose response assay to identify non-selective compounds using the VP16 reporter assay.; assay type: functional
[11] = cytotoxicity in A549 cells, dose response, cytotoxicity control, cell-based, CellTiter-Glo luminescence, cherry-pick (AID 743484); assay type: functional
[12] = HEK293T cell cytotoxicity, dose response, cytotoxicity control, CellTiter-Glo luminescence, cherry-picked samples, set 4 (AID 743441); assay type: functional, cell-based; conditions: HEK293
[13] = target: Mitogen-activated protein kinase 10 (Homo sapiens, UniProt P53779); assay: Dose response biochemical screening assay for inhibitors of c-Jun N-Terminal Kinase 3 (JNK3). [Related pubchem assays: 746 ]
Major prion protein = Major prion protein (Homo sapiens, UniProt P04156); assay type: functional, cell-based
cells [14] = assay: cells
[15] = Luminescence-based cell-based high throughput dose response assay to identify activators of the DAF-12 from the parasite S. stercoralis (ssDAF-12).; assay type: functional
[16] = target: Oxysterols receptor LXR-beta (Homo sapiens, UniProt P55055); assay: LXR agonists, Gal4 luciferase reporter, dose response, counter-screen for ssDAF-12 agonist project, cell-based, luminescence, HEK293, S. stercoralis campaign (AID 720737); assay type: functional; conditions: read-out: IC50 (the source's name)
Kallikrein-7 = Kallikrein-7 (Homo sapiens, UniProt P49862); assay: Fluorescence Intensity-based biochemical primary high throughput dose response assay to identify activators of kallikrein-7 (K7) zymogen.
Kallikrein-7, sequence (P49862 whole entry, the tested form may be a part): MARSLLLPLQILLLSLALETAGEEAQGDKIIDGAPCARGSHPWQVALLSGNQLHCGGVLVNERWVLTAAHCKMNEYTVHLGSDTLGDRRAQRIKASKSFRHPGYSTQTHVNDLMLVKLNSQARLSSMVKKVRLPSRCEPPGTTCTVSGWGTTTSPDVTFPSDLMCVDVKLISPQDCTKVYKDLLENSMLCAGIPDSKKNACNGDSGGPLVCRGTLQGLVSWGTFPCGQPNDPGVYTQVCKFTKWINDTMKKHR

[17] = HIV Env cell-cell fusion inhibitors, dose response, HIV entry, plate reader, dry powder (AID 687023); assay type: functional, cell-based
[18] = CEM21 cell cytotoxicity, dose response, cytotoxicity control, plate reader, dry powder (AID 687026); assay type: functional, cell-based
[19] = TRPM1 promoter luciferase reporter signal decrease, dose response, MITF inhibitor project, cell-based, SK-MEL-5, dry powder, set 9 (AID 651588); assay type: functional
[20] = A375 melanoma cell viability loss, dose response, counter-screen for MITF inhibitor project, CellTiter-Glo luminescence, dry powder, set 4 (AID 624364); assay type: functional, cell-based; conditions: A-375;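 further: A375 melanoma cells are MITF independent so this is a counter screen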
[21] = MITF Orthogonal Assay: MALME3 CTG Assay Measured in Cell-Based System Using Plate Reader - 2084-04_Inhibitor_Dose_DryPowder_Activity_Set6.; assay type: functional; conditions: MALME-3
[22] = SK-MEL-5 parental cell viability reduction, dose response, orthogonal assay for MITF inhibitor project, CellTiter-Glo luminescence, dry powder, set 8 (AID 651586); assay type: functional, cell-based
[23] = MALME3 melanoma cell viability reduction, dose response, orthogonal assay for MITF inhibitor project, CellTiter-Glo luminescence, dry powder, set 5 (AID 651584); assay type: functional, cell-based; conditions: MALME-3
[24] = SK-MEL-5 parental line viability, dose response, MITF inhibitor project, cell-based, CellTiter-Glo, dry powder, set 6 (AID 624429); assay type: functional
[25] = MITF Orthogonal Assay: SK-MEL-5 CTG Assay Measured in Cell-Based System Using Plate Reader - 2084-02_Inhibitor_Dose_DryPowder_Activity_Set5.; assay type: functional
[26] = MITF Measured in Cell-Based System Using Plate Reader - 2084-01_Inhibitor_Dose_DryPowder_Activity_Set6.; assay type: functional
[27] = MITF Measured in Cell-Based System Using Plate Reader - 2084-01_Inhibitor_Dose_DryPowder_Activity_Set7.; assay type: functional
[28] = target: G-protein coupled receptor 183 (Homo sapiens, UniProt P32249); assay: SAR confirmation of small molecule antagonists of the EBI2 receptor via a luminescent beta-arrestin assa.; assay type: functional
G-protein coupled receptor 183, sequence (P32249 whole entry): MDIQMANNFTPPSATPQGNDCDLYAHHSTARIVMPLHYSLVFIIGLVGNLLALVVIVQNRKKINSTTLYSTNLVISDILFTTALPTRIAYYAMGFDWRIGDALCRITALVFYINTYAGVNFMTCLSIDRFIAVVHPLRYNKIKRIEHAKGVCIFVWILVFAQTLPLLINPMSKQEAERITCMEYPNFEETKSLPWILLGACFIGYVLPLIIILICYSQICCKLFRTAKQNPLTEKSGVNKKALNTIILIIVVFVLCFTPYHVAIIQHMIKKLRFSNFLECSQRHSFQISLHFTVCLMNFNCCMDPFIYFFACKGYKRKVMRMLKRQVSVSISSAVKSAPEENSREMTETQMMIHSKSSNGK

[29] = P. falciparum 3D7-ScDHODH growth inhibitors, dose response, SYBR Green, dry powder samples (AID 1159570); assay type: functional, cell-based;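 further: parasite growth measured after 72 hours of compound exposure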
[30] = HepG2 cell cytotoxicity, dose response, cytotoxicity control, plate reader, dry powder samples (AID 1159569); assay type: functional, cell-based;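 further: inhibitor potency with signal falling toward the positive control level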
[31] = P. falciparum Dd2 growth inhibitors, dose response, SYBR Green, cherry-picked samples (AID 1159567); assay type: functional, cell-based
[32] = P. falciparum Dd2 growth inhibitors, dose response, SYBR Green, dry powder samples (AID 1159566); assay type: functional, cell-based;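 further: potency for growth inhibition with lower SYBR green DNA signal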
[33] = P. falciparum ATP4 D1247Y mutant growth inhibitors, dose response, NITD609-resistant line, SYBR Green, dry powder (AID 1159571); assay type: functional, cell-based;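 further: parasites synchronized at ring stage by sorbitol before testing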
[34] = target: RNA-editing ligase 1, mitochondrial (Trypanosoma brucei brucei, UniProt P86926); assay: TbREL1 ligase inhibitors, dose response, biochemical, fluorescence, Trypanosoma brucei (AID 1117295); assay type: functional
Phospholipase D2 = Phospholipase D2 (Homo sapiens, UniProt O14939); assay: PLD2 Cellular Concentration Response Study.; assay type: functional
Phospholipase D2, sequence (O14939 whole entry): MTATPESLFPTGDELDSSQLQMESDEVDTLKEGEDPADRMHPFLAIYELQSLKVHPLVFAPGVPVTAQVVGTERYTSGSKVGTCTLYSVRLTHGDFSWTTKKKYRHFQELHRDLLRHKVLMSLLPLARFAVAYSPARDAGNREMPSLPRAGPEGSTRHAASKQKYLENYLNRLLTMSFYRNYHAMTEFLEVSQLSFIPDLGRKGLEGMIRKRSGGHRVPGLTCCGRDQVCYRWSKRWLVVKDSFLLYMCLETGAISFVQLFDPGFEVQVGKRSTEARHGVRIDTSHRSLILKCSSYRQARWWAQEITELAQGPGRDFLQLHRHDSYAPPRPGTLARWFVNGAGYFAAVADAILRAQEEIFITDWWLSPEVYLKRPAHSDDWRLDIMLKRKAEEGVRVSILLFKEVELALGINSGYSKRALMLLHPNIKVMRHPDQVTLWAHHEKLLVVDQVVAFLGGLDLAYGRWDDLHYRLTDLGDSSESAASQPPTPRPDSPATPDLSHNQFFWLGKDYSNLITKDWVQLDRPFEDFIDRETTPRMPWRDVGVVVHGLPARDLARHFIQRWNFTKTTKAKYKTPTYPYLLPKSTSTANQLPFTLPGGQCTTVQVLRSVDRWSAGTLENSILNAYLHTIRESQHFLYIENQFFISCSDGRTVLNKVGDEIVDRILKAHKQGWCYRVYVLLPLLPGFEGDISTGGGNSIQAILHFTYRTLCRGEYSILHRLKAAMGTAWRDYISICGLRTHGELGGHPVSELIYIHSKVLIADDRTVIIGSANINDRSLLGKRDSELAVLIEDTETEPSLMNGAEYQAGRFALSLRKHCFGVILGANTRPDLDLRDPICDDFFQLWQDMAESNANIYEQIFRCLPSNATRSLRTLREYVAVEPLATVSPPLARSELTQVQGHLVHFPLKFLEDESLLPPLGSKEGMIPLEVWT

Phospholipase D1 = Phospholipase D1 (Homo sapiens, UniProt Q13393); assay: PLD1 Cellular Concentration Response Study.; assay type: functional
Phospholipase D1, sequence (Q13393 whole entry): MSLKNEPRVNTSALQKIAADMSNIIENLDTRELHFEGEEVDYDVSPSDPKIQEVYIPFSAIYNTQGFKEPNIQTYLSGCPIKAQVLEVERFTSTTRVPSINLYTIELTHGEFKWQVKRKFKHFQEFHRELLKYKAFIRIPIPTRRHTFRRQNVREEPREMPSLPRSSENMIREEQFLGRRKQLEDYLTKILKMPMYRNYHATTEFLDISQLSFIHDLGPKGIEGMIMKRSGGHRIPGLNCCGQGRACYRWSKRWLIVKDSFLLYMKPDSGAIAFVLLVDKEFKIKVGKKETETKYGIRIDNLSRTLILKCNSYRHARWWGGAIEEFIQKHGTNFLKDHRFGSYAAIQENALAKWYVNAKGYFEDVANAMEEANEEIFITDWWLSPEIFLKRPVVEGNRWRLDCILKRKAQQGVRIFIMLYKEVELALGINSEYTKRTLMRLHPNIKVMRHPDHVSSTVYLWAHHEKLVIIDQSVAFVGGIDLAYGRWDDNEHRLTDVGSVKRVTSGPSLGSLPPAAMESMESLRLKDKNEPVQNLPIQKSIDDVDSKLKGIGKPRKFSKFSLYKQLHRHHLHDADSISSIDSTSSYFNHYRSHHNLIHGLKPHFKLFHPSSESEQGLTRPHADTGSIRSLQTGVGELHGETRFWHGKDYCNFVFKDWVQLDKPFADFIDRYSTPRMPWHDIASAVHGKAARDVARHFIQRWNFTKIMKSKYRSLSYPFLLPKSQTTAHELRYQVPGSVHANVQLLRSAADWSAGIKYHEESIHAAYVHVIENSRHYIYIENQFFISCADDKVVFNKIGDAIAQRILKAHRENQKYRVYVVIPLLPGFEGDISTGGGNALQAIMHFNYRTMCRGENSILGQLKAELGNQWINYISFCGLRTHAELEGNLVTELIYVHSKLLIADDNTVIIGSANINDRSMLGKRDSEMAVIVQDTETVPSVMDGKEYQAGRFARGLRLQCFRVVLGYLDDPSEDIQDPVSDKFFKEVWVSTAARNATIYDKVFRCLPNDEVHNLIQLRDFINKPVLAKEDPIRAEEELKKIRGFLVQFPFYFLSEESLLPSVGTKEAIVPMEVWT

[35] = target: Calcium-dependent protein kinase 1 (Plasmodium falciparum, UniProt P62344); assay: PfCDPK1 kinase inhibitors, biochemical, TCAMS library (AID 1159585); assay type: functional
Calcium-dependent protein kinase 1, sequence (P62344 whole entry): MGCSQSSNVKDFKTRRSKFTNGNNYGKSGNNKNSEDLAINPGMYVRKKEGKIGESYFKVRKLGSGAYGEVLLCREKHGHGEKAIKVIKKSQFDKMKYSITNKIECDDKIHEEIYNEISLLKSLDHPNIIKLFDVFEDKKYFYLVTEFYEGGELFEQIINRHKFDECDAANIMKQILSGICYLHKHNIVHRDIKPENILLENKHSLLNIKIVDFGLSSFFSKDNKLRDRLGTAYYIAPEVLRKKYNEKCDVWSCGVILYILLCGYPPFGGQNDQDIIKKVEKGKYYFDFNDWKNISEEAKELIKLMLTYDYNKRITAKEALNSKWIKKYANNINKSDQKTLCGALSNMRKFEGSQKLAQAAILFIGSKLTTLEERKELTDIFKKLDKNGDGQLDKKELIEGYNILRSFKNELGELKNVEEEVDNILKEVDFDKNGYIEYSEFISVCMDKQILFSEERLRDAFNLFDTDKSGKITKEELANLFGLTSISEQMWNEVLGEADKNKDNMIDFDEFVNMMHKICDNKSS

[36] = Dose-response inhibition of insulin secretion in a rat insulinoma line at 5 mM glucose (AID 1117331); assay type: functional, cell-based; conditions: INS-1E
cells [37] = assay type: functional, cell-based; conditions: INS-1E
Cytochrome P450 1A2 = target: T2, Cytochrome P450 1A2 (Homo sapiens, UniProt P05177);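 further: PubChem cytochrome P450 panel assay, CYP1A2 panel member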
T2 sequence (P05177 whole entry): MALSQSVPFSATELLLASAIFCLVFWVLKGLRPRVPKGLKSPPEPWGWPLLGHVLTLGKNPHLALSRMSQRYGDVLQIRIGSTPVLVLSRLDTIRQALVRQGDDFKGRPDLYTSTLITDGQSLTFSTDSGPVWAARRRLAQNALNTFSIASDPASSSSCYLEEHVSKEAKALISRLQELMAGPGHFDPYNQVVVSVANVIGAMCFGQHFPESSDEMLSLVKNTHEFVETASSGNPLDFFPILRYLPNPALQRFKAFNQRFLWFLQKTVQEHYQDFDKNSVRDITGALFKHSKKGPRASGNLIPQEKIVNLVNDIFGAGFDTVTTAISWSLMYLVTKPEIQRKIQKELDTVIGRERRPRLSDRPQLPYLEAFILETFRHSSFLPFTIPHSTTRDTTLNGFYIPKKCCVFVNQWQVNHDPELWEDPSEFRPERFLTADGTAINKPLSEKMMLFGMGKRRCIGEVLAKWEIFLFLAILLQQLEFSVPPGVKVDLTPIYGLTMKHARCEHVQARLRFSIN

## Cc1cc(Br)ccc1OCCCCNCCO
[1]
  EC50: > 50 µM (active)
[2]
  EC50: > 50 µM (not active)

## O=C(O)C1Cc2ccccc2N2CCCC12 (stereo not drawn)
[3]
  IC50: 16.3 µM (active)

## O=C(O)c1ccc(CSc2nnc(Cc3ccccc3)o2)cc1
Transthyretin
  EC50: > 167 µM (inactive)

## CN1C(C(=O)NCc2cccc(Br)c2)CC2Cn3c(nc4cc5ccccc5cc43)C21 (stereo not drawn)
[4]
  EC50: 11.1 µM (not active)

## CCN(CC)CCn1c2ccccc2c2nc3ccc([N+](=O)[O-])cc3cc21
[5]
  EC50: > 120 µM (not active)
[6]
  EC50: 8.22 µM (inconclusive)
[7]
  EC50: 15.8 µM (active)
[8]
  AC50: 1.56 µM (active)
[9]
  EC50: 7.55 µM (active)
[10]
  EC50: > 91.2 µM (inactive)
[11]
  AC50: 39.6 µM (active)
[12]
  AC50: 5.85 µM (active)

## O=C(O)CSc1ccc2ccccc2n1
[13]
  IC50: > 93.1 µM (not active)
Major prion protein
  IC50: 6.89 µM (active)
Cells [14]
  IC50: > 138 µM (inactive)

## c1ccc(SCc2nc3ccccc3s2)nc1
[15]
  IC50: > 67.5 µM (inactive)
[16]
  EC50: > 67.5 µM (inactive)

## O=C1NC(C2CC3C=CC2C3)Nc2ccccc21 (stereo not drawn)
Kallikrein-7
  EC50: > 69.4 µM (inactive)

## CCOc1ccc(S(=O)(=O)NCc2ccncc2)cc1OCC
[17]
  AC50: 0.562 µM (active)
[18]
  AC50: > 70 µM (inactive)

## NC1=C(NS(=O)(=O)c2ccc(Br)cc2)C(=O)c2ccccc2C1=O
[19]
  AC50: > 70 µM (inactive)
[20]
  AC50: > 70 µM (inactive)
[21]
  AC50: > 70 µM (inactive)
[22]
  AC50: > 70 µM (inactive)
[23]
  AC50: > 70 µM (inactive)
[24]
  AC50: > 70 µM (inactive)
[25]
  AC50: > 70 µM (inactive)
[26]
  AC50: 41.5 µM (active)
[27]
  AC50: 53.6 µM (active)

## O=C(Cc1ccc(Br)cc1)N1CCN(C(=O)c2ccc(Cl)cc2)CC1
[28]
  IC50: > 1 µM (inactive)

## CC(C)CC#Cc1ccc([C@@H]2[C@H](CO)N3CCCCN(S(=O)(=O)Cc4ccccc4)C[C@@H]23)cc1
[29]
  AC50: 1.48 µM (active)
[30]
  AC50: 9.93 µM (active)
[31]
  AC50: 2.3 µM (active)
[32]
  AC50: 0.805 µM (active)
[33]
  AC50: 0.957 µM (active)

## C=CCNC1=NC(c2ccc(F)cc2)C(C(=O)OC)=C(C)N1Cc1ccccc1C(F)(F)F (stereo not drawn)
[34]
  IC50: > 96.6 µM (inactive)

## O=C(NCCN1CCC2(CC1)C(=O)NCN2Cc1cccc(Cl)c1)c1ccc2ccccc2c1
Phospholipase D2
  IC50: 0.25 µM (active)
Phospholipase D1
  IC50: 2.8 µM (active)

## CC(C)(CN)c1nc(-c2ccc(Cl)c(O)c2)c(-c2ccnc(N)n2)[nH]1
[35]
  IC50: 0.007 µM (active)

## CCN(CC)CCOCCOC(=O)C1(c2ccccc2)CCCC1 [CARBETAPENTANE]
[36]
  IC50: 7.69 µM (inactive)
Cells [37]
  IC50: > 33.3 µM (inactive)
Cytochrome P450 1A2
  AC50: 20 µM (inconclusive)
